{"source": "patent US20240287063A1", "about": "“METHIONINE ADENOSYLTRANSFERASE 2A INHIBITOR” (NANJING CHIA TAI TIANQING PHARMACEUTICAL CO., LTD., priority 2021, published 2024)", "key": {"MAT2A enzyme": {"molecular_target": "T1, MAT2A enzyme (Homo sapiens, UniProt P31153)", "T1 construct": "purchased BPS 71401", "T1 sequence (P31153 whole entry)": "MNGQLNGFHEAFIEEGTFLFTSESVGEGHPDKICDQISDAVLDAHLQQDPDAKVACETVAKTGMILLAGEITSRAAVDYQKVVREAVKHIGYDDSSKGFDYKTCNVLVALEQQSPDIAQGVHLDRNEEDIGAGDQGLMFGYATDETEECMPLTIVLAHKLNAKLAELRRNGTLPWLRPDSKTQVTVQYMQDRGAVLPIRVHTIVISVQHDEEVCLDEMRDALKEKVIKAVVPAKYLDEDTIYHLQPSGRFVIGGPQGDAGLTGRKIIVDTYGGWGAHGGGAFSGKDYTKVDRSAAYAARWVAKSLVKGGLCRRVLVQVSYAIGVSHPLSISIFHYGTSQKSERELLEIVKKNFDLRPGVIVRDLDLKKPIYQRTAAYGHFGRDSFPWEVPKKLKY", "experiment": "Enzymatic testing method for MAT2A (Biomol Green, OD620)", "format": "biochemical", "conditions": "score by IC50 for inhibiting MAT2A; read-out: MAT2A inhibition score", "how_it_was_run": "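Human MAT2A (final 2.20 ng/L) preincubated 30 min at 25 °C with compound (8 points from 1 μM, ½-log steps) in Tris-HCl pH 8.0 with KCl, MgCl2, EDTA. L-methionine and ATP added, 150 min at 25 °C; phosphate detected by Biomol Green (OD620); IC50 from variable-slope fit.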"}, "HCT116 MTAP −/− cells": {"tested_on": "HCT116 MTAP −/− cells", "experiment": "Cell testing method: HCT116 MTAP-/- cell proliferation inhibition (CellTiter-Glo, 120 h)", "format": "cell-based", "conditions": "Homo sapiens, HCT-116; score by IC50 for inhibiting HCT116 MTAP−/− cells", "experimental": "HCT116 MTAP −/− cells (purchased from Horizon Discovery): human colorectal cancer cell lines with MTAP gene deletion were cultured in medium RPMI 1640+10% FBS (Fetal bovine serum). On day 0 of the experiment, the live cell density of the foregoing cells in logarithmic growth phase was adjusted to 5000 cells/ml, the cells were inoculated to a 96-well plate by an amount of 100 μl/well, and a blank group was set in parallel; and the inoculated cell plate was put into a 37° C., 5% CO2 incubator for overnight culture.\nOn day 1 of the experiment, the overnight cultured cell plate was taken out, the supernatant was discarded, 80 μl of serum-free RPMI 1640 medium was added to each well, and place the cells in an incubator for starvation cultivation for 4 h. The compound to be tested was dissolved in DMSO (dimethyl sulfoxide) to prepare a 10 mM compound stock solution. After starvation, the cell plate was taken out, and 80 μl of RPMI 1640+20% FBS medium was added to each well; the cell plate was placed on an automatic liquid dispenser D300e (Tecan), and a dosing program was set as follows: a maximum concentration of the compound to be tested was 30 μM, the compound was diluted with DMSO by a 3 times concentration gradient, there was a total of 10 concentrations, two duplicate wells were set for each concentration, and the DMSO final concentration in each well of the 96-well plate was 0.3%, v/v. The pre-prepared 10 mM stock solution of the compound to be tested was taken out, and the above dosing program was run for dosing. After the dosing was completed, the cell plate was placed in incubator and culture for 120 h.\nOn day 6 of the experiment, the cell plate was taken out, 50 μl of CellTiter-Go® (purchased from Promega) was added to each well, and fluorescence signal was measured on Envision (PerkinElmer) according to operation procedures in the manual.\nA dose-effect curve: log(inhibitor) vs. response-Variable slope was fitted by using GraphPad Prism 5 software to obtain an IC50 value of the compound for inhibiting cell proliferation inhibition. A formula for calculating an inhibition rate was: […]\nWherein, • Signal value of tested compound: mean fluorescence signal of cells group+medium group+compound group; • Signal value of blank group: mean fluorescence signal of medium group; • Signal value of negative control group: mean fluorescence signal of cells group+medium group."}, "[1]": {"tested_on": "HCT116 MTAP−/− subcutaneous xenograft tumors", "experiment": "In vivo effect experiment of HCT116 MTAP−/− subcutaneous xenograft tumors in nude mice", "experimental": "Female Nu/Nu nude mice (6-8 weeks old, Beijing Vital River Laboratory Animal Technology Co., Ltd.) were raised in an SPF animal room at a temperature of 20° C.-25° C., relative humidity of 40%-70%, and light and dark lighting for 12 hours each; and animals can freely drink and eat. The animals were adaptively fed before experiment.\nHCT116 MTAP^−/− cells (Horizon) were cultured in vitro for proliferation, cells in logarithmic growth phase were collected and resuspended in a serum-free RPMI-1640 medium, and the cell concentration was adjusted to 6.0×10^7 cells/mL; and 100 μL of the cell suspension was injected subcutaneously into the right anterior armpit of each nude mouse by using a 1 mL syringe, the status of the animals was observed regularly, and the growth of transplanted tumors was monitored regularly.\nWhen the tumor volume reached 100-300 mm^3, animals with too large or too small tumor volume or uncertain tumor formation were eliminated, and tumor bearing mice with good health and similar tumor volume were selected and randomly grouped, 6 mice in each group; the administration group received daily intragastric administration (AG-270: 50 mg/kg, with a structure shown below; compound to be tested: 1-7.5 mg/kg); and the control group was intragastrically administrated with the same volume of blank solvent. In the administration period, the tumor diameter was measured twice a week, the tumor volume was calculated, the animals were weighed, and their weight was recorded.\nA formula for calculating tumor volume (TV) is: Tv=½×a×b^2, wherein a represents long diameter of the tumor, and b represents short diameter of the tumor.\nExperimental data is calculated and statistically processed by using Microsoft Office Excel 2007 software. Unless otherwise specified, the data were expressed as mean±standard error (Mean SEM), and t-test is used for comparison between two groups.\nGrowth curves of tumor volume in each group are shown in FIG. 1, results of SAM test in tumors of each group are shown in FIG. 2, and the mean tumor volume and SEM in each group are shown in Table 2 below: […]"}}, "data": [{"smiles": "Cn1cc2cc(-c3cn4ccc(OCC(F)(F)F)nc4c(-c4ccc(OC(F)F)cc4)c3=O)ccc2n1", "note": "[Example 22, 9-[4-(difluoromethoxy)phenyl]-7-(2-methyl-2H-indazol-5-yl)-2-(2,2,2-trifluoroethoxy)-8H-pyrido[1,2-a]pyrimidin-8-one]", "values": [{"measurement": "IC50", "setting": "MAT2A enzyme", "result": "< 0.05", "unit": "µM"}, {"measurement": "IC50", "setting": "HCT116 MTAP −/− cells", "result": "< 0.15", "unit": "µM"}, {"measurement": "Tumor volume, mean volume", "setting": "[1]; 7.5 mg/kg daily intragastric, day 1 of administration", "result": 152, "unit": "mm^3"}, {"measurement": "Tumor volume, mean volume", "setting": "[1]; 7.5 mg/kg daily intragastric, day 4 of administration", "result": 173, "unit": "mm^3"}, {"measurement": "Tumor volume, mean volume", "setting": "[1]; 7.5 mg/kg daily intragastric, day 6 of administration", "result": 180, "unit": "mm^3"}, {"measurement": "Tumor volume, mean volume", "setting": "[1]; 7.5 mg/kg daily intragastric, day 8 of administration", "result": 212, "unit": "mm^3"}, {"measurement": "Tumor volume, mean volume", "setting": "[1]; 7.5 mg/kg daily intragastric, day 11 of administration", "result": 267, "unit": "mm^3"}, {"measurement": "Tumor volume, mean volume", "setting": "[1]; 7.5 mg/kg daily intragastric, day 13 of administration", "result": 324, "unit": "mm^3"}, {"measurement": "Tumor volume, mean volume", "setting": "[1]; 7.5 mg/kg daily intragastric, day 15 of administration", "result": 375, "unit": "mm^3"}]}, {"smiles": "O=c1c(-c2ccc(OC(F)F)cc2)cn2ccc(C3CC3)nc2c1-c1ccc(OC(F)F)cc1", "note": "[Example 23, 2-cyclopropyl-7,9-bis[4-(difluoromethoxy)phenyl]-8H-pyrido[1,2-a]pyrimidin-8-one]", "values": [{"measurement": "IC50", "setting": "MAT2A enzyme", "result": "< 0.05", "unit": "µM"}, {"measurement": "IC50", "setting": "HCT116 MTAP −/− cells", "result": "< 0.15", "unit": "µM"}, {"measurement": "Tumor volume, mean volume", "setting": "[1]; 1 mg/kg daily intragastric, day 1 of administration", "result": 152, "unit": "mm^3"}, {"measurement": "Tumor volume, mean volume", "setting": "[1]; 1 mg/kg daily intragastric, day 4 of administration", "result": 198, "unit": "mm^3"}, {"measurement": "Tumor volume, mean volume", "setting": "[1]; 1 mg/kg daily intragastric, day 6 of administration", "result": 205, "unit": "mm^3"}, {"measurement": "Tumor volume, mean volume", "setting": "[1]; 1 mg/kg daily intragastric, day 8 of administration", "result": 238, "unit": "mm^3"}, {"measurement": "Tumor volume, mean volume", "setting": "[1]; 1 mg/kg daily intragastric, day 11 of administration", "result": 266, "unit": "mm^3"}, {"measurement": "Tumor volume, mean volume", "setting": "[1]; 1 mg/kg daily intragastric, day 13 of administration", "result": 284, "unit": "mm^3"}, {"measurement": "Tumor volume, mean volume", "setting": "[1]; 1 mg/kg daily intragastric, day 15 of administration", "result": 312, "unit": "mm^3"}, {"measurement": "Tumor volume, mean volume", "setting": "[1]; 2.5 mg/kg daily intragastric, day 1 of administration", "result": 153, "unit": "mm^3"}, {"measurement": "Tumor volume, mean volume", "setting": "[1]; 2.5 mg/kg daily intragastric, day 4 of administration", "result": 190, "unit": "mm^3"}, {"measurement": "Tumor volume, mean volume", "setting": "[1]; 2.5 mg/kg daily intragastric, day 6 of administration", "result": 196, "unit": "mm^3"}, {"measurement": "Tumor volume, mean volume", "setting": "[1]; 2.5 mg/kg daily intragastric, day 8 of administration", "result": 193, "unit": "mm^3"}, {"measurement": "Tumor volume, mean volume", "setting": "[1]; 2.5 mg/kg daily intragastric, day 11 of administration", "result": 208, "unit": "mm^3"}, {"measurement": "Tumor volume, mean volume", "setting": "[1]; 2.5 mg/kg daily intragastric, day 13 of administration", "result": 190, "unit": "mm^3"}, {"measurement": "Tumor volume, mean volume", "setting": "[1]; 2.5 mg/kg daily intragastric, day 15 of administration", "result": 191, "unit": "mm^3"}]}, {"smiles": "Cn1cc2cc(-c3cn4ccc(C5CC5)nc4c(-c4ccc(OC(F)F)cc4)c3=O)ccc2n1", "note": "[Example 25, 2-cyclopropyl-9-[4-(difluoromethoxy)phenyl]-7-(2-methyl-2H-indazol-5-yl)-8H-pyrido[1,2-a]pyrimidin-8-one]", "values": [{"measurement": "IC50", "setting": "MAT2A enzyme", "result": "< 0.05", "unit": "µM"}, {"measurement": "IC50", "setting": "HCT116 MTAP −/− cells", "result": "< 0.15", "unit": "µM"}, {"measurement": "Tumor volume, mean volume", "setting": "[1]; 5 mg/kg daily intragastric, day 1 of administration", "result": 152, "unit": "mm^3"}, {"measurement": "Tumor volume, mean volume", "setting": "[1]; 5 mg/kg daily intragastric, day 4 of administration", "result": 174, "unit": "mm^3"}, {"measurement": "Tumor volume, mean volume", "setting": "[1]; 5 mg/kg daily intragastric, day 6 of administration", "result": 186, "unit": "mm^3"}, {"measurement": "Tumor volume, mean volume", "setting": "[1]; 5 mg/kg daily intragastric, day 8 of administration", "result": 219, "unit": "mm^3"}, {"measurement": "Tumor volume, mean volume", "setting": "[1]; 5 mg/kg daily intragastric, day 11 of administration", "result": 305, "unit": "mm^3"}, {"measurement": "Tumor volume, mean volume", "setting": "[1]; 5 mg/kg daily intragastric, day 13 of administration", "result": 378, "unit": "mm^3"}, {"measurement": "Tumor volume, mean volume", "setting": "[1]; 5 mg/kg daily intragastric, day 15 of administration", "result": 417, "unit": "mm^3"}]}]}
